Measured values as given in EP4341264B1, “PYRROLOPIRIMIDINE DERIVATIVES AND THEIR USE IN THE TREATMENT OF LEISHMANIASIS” (Drugs for Neglected Diseases Initiative, priority 2021, dated 2022).
Read-outs that look alike come from different tables or passages of the source.

Key:
[1] = test system: L. infantum (MHOM/MA/67/ITMAP263); test: Intracellular amastigote susceptibility assay (primary peritoneal mouse macrophages); type: cell-based; settings: Leishmania infantum, Macrophage; L. infantum (MHOM/MA/67/ITMAP263) amastigotes in mouse macrophages, 96-h incubation
Description: (§1) To obtain primary peritoneal macrophages, Swiss mice were stimulated by intraperitoneal injection of 1 mL 2% starch in PBS 48 h prior to cell collection. Animals were euthanized with a CO2 overdose and upon removal of the skin, 10 mL of RPMI-1640 (Life Technologies) was injected into the peritoneal cavity to collect the macrophages that were then seeded into 96-well plates at a final concentration of 30,000 cells/well in 100 µL of RPMI-1640 macrophage medium, supplemented with 5% iFCS, 2% penicillin/streptomycin and 1% L-glutamine (Life technologies). After 24 h, the cells were infected with spleen derived L. infantum (MHOM/MA(BE)/67/ITMAP263) or L. donovani (MHOM/ET/67/L82) amastigotes obtained from heavily infected donor hamsters. The amastigotes were purified using two centrifugation steps and diluted to obtain an infection ratio of 5:1 in RPMI-1640 cell culture medium. After incubation for 2 h, compound dilutions were added. Drug activity was evaluated after a 96-h incubation period without washing of the cells and without renewal of the drugged culture medium. Cells were stained with Giemsa for microscopic evaluation of cellular amastigote burdens. Percentage reduction compared to the burdens in the infected non-treated control wells was used as a measure for drug activity.

[2] = test system: L. donovani (MHOM/ET/67/L82); test: as above; type: cell-based; settings: Leishmania donovani, Macrophage; L. donovani (MHOM/ET/67/L82) amastigotes in mouse macrophages, 96-h incubation
Description: as §1

[3] = test system: L. infantum; test: VL hamster model in vivo efficacy (reduction of parasite load vs. control); settings: 5 days
Description: The in vivo efficacy of the compounds C1, C3, C4, and miltefosine was evaluated in a VL hamster model infected with L. infantum. The in vivo studies were performed in accordance with the methods described by Van den Kerkhof et al. [IJP: Drugs and Drug Resistance, 2018, 8, Issue 1, 81-86]. Following treatment, the reduction of parasite load vs. control was determined in different body compartments (liver, spleen, and bone marrow) with results presented in Table 4. Table 4. Hamster in vivo efficacy

[4] = test system: L. guyanensis (MHOM/PE/02/PER 054/0); test: Leishmania clinical isolate panel screen (drug-susceptibility assay in infected macrophages); type: cell-based; settings: Macrophage, read-out: IC50 Mean ± SEM
Description: (§2) Female Swiss mice (BW ~20 g) were purchased from a commercial source (Janvier France) and kept in quarantine for 1 week. The animals were housed in group and drinking water was available ad libitum. To harvest peritoneal macrophages, the mice were first stimulated by intraperitoneal injection of 1 mL of starch solution (2% in PBS). After 24 h, macrophages were collected in RPMI-1640 supplemented with 5% iFCS, 2% penicillin-streptomycin and 1% L-glutamine by peritoneal lavage and immediately distributed in a 96-well plate at a concentration of 30,000 cells/well. The cells were incubated for 24 h at 37°C and 5 % CO2 to allow cell attachment.
(§3) Strains of L. donovani, L. infantum, L. major, L. tropica, L. guyanensis and L. panamensis were selected based on their intrinsic susceptibility to the commonly used reference drugs and their geographic distribution. All strains were cultivated in HOMEM promastigote medium and sub-cultured twice weekly. Passage numbers were kept as low as possible to avoid loss of virulence. For infection of the macrophages, metacyclic promastigote cultures were examined light microscopically for the abundant presence of metacyclic promastigotes. Upon counting, promastigotes were centrifuged and diluted in RPMI-1640 to the desired concentration. The infection ratio varied based on the ability of the strain to adequately infect the host cells and ranged from 5 to 20 promastigotes per macrophage. Macrophages were infected by adding 100 µL promastigote suspension per well onto the macrophages. When ex vivo amastigotes were available (only for two lab strains), macrophages were infected at a ratio of 10/1.
(§4) Stock solutions of the DNDi lead compounds were prepared in 100% DMSO at 20 mM and robotically further diluted in water. Miltefosine (MIL) was included as reference and formulated in water at a concentration of 20 mM. The medium was discarded from the plates to remove any residual non-internalized promastigotes and replaced by fresh RPMI-1640 medium supplemented with iFBS, P/S and L-glutamine (as described above). Next, a 2-fold dilution series of each lead compound was added to the plate with 64 µM as the highest in test-concentration for the DNDi leads and 40 µM for MIL. The 96-well plates were further incubated at 34-37°C and 5% CO2. For staining, the culture medium was discarded, and the plates were left to dry for 2-4 hours. The cells were then fixated with methanol for 10 minutes and stained with a 1/5 Giemsa dilution in water for 15 minutes. The percentage infection-inhibition compared to a positive control (untreated infected macrophages) was microscopically determined and used to calculate the IC50 and IC90 values.

[5] = test system: L. donovani (MHOM/NP/03/BPK275/0-cl18); test: as above; type: cell-based; settings: Macrophage, read-out: IC50 Mean ± SEM
Description: as §2, §3, §4

[6] = test system: L. infantum (LEM3323-cl4 PMM); test: as above; type: cell-based; settings: Macrophage, read-out: IC50 Mean ± SEM
Description: as §2, §3, §4

[7] = test system: L. infantum (LEM3323-cl4 MIL); test: as above; type: cell-based; settings: Macrophage, read-out: IC50 Mean ± SEM
Description: as §2, §3, §4

[8] = test system: L. panamensis (MHOM/PA/71/LS94); test: as above; type: cell-based; settings: Macrophage, read-out: IC50 Mean ± SEM
Description: as §2, §3, §4

[9] = test system: L. tropica (MHOM/AF/2015/HTD7); test: as above; type: cell-based; settings: Macrophage, read-out: IC50 Mean ± SEM
Description: as §2, §3, §4

[10] = test system: L. infantum (MHOM/FR/96/LEM3323-cl4); test: as above; type: cell-based; settings: Macrophage, read-out: IC50 Mean ± SEM
Description: as §2, §3, §4

[11] = test system: L. major (MHOM/IL/81/Friedlin); test: as above; type: cell-based; settings: Macrophage, read-out: IC50 Mean ± SEM
Description: as §2, §3, §4

[12] = test system: L. donovani (MHOM/ NP/2003/BPK282/0-cl4); test: as above; type: cell-based; settings: Macrophage, read-out: IC50 Mean ± SEM
Description: as §2, §3, §4

[13] = test system: L. infantum (MHOM/ES/2016/LLM-2346); test: as above; type: cell-based; settings: Macrophage, read-out: IC50 Mean ± SEM
Description: as §2, §3, §4

[14] = test system: L. major (MHOM/SA/85/JISH118); test: as above; type: cell-based; settings: Macrophage, read-out: IC50 Mean ± SEM
Description: as §2, §3, §4

[15] = test system: L. infantum (MHOM/BR/2007/WC (L3015)); test: as above; type: cell-based; settings: Macrophage, read-out: IC50 Mean ± SEM
Description: as §2, §3, §4

[16] = test system: T. cruzi infected NIH-3T3 murine fibroblasts; settings: Peña et al. Sci. Rep. 2015, 5; cited from earlier work
[17] = test system: L. donovani parasites in infected human macrophages; settings: Peña et al. Sci. Rep. 2015, 5; cited from earlier work
[18] = Cutaneous leishmaniasis, L. guyanensis (MHOM/PE/02/PER 054/0), Miltefosine: mean only
[19] = Visceral leishmaniasis, L. donovani (MHOM/NP/03/BPK275/0-cl18), Miltefosine: mean only
[20] = Cutaneous leishmaniasis, L. panamensis (MHOM/PA/71/LS94), Miltefosine: mean only
[21] = Cutaneous leishmaniasis, L. tropica (MHOM/AF/2015/HTD7), Miltefosine: mean only
[22] = Visceral leishmaniasis, L. infantum (MHOM/FR/96/LEM3323-cl4), Miltefosine: mean only
[23] = Cutaneous leishmaniasis, L. major (MHOM/IL/81/Friedlin), Miltefosine: mean only
[24] = Visceral leishmaniasis, L. donovani (MHOM/ NP/2003/BPK282/0-cl4), Miltefosine: mean only
[25] = Visceral leishmaniasis, L. infantum (MHOM/ES/2016/LLM-2346), Miltefosine: mean only
[26] = Cutaneous leishmaniasis, L. major (MHOM/SA/85/JISH118), Miltefosine: mean only
[27] = Visceral leishmaniasis, L. infantum (MHOM/BR/2007/WC (L3015)), Miltefosine: mean only

Row | Structure (SMILES) | IC50 [1] | IC90 [1] | IC50 [2] | IC90 [2] | IC50 [4, 18] | IC50 [5, 19] | IC50 [6] | IC50 [7] | IC50 [8, 20] | IC50 [9, 21] | IC50 [10, 22] | IC50 [11, 23] | IC50 [12, 24] | IC50 [13, 25] | IC50 [14, 26] | IC50 [15, 27] | % Parasite reduction Bone marrow ([3]; 25 mg/kg qd) | % Parasite reduction Liver ([3]; 25 mg/kg qd) | % Parasite reduction Spleen ([3]; 25 mg/kg qd) | also measured
1 | Cc1[nH]c2nc(N)nc(C)c2c1-c1ccc(F)c2c1OCO2 [Compound C2, 5-(7-fluoro-1,3-benzodioxol-4-yl)-4,6-dimethyl-7H-pyrrolo[2,3-d]pyrimidin-2-amine] | 150 nM | 330 nM | 140 nM | 650 nM |  |  |  |  |  |  |  |  |  |  |  |  |  |  |  | 
2 | COc1cc(C#N)ccc1-c1c(C)[nH]c2nc(N)nc(C)c12 [Compound C1, 4-(2-amino-4,6-dimethyl-7H-pyrrolo[2,3-d]pyrimidin-5-yl)-3-methoxybenzonitrile] | 870 nM | 2900 nM | 1390 nM | 2320 nM | 60 ± 30 nM | 150 ± 20 nM | 380 ± 70 nM | 350 ± 80 nM | 170 ± 110 nM | 1490 ± 240 nM | 200 ± 80 nM | 500 ± 170 nM | 100 ± 170 nM | 690 ± 190 nM | 3000 ± 1050 nM | 440 ± 240 nM |  |  |  | % Parasite reduction Bone marrow ([3]; 25 mg/kg bid): 98.9%; % Parasite reduction Liver ([3]; 25 mg/kg bid): 95.9%; % Parasite reduction Spleen ([3]; 25 mg/kg bid): 95.2%; % Parasite reduction Bone marrow ([3]; 50 mg/kg bid): 97.4%; % Parasite reduction Liver ([3]; 50 mg/kg bid): 99.2%; % Parasite reduction Spleen ([3]; 50 mg/kg bid): 95.3%
3 | Cc1[nH]c2nc(N)nc(C)c2c1-c1ccc(C#N)c2c1OCO2 [Compound C4, 7-(2-amino-4,6-dimethyl-7H-pyrrolo[2,3-d]pyrimidin-5-yl)-1,3-benzodioxole-4-carbonitrile] | 150 nM | 370 nM | 160 nM | 410 nM |  |  | 60 ± 20 nM | 70 ± 10 nM |  |  |  |  |  |  |  |  | 99.4% | 99.6% | 99.9% | % Parasite reduction Bone marrow ([3]; 6.25 mg/kg bid): 93.6%; % Parasite reduction Liver ([3]; 6.25 mg/kg bid): 96.9%; % Parasite reduction Spleen ([3]; 6.25 mg/kg bid): 97.6%; % Parasite reduction Bone marrow ([3]; 12.5 mg/kg bid): 99.6%; % Parasite reduction Liver ([3]; 12.5 mg/kg bid): 99.7%; % Parasite reduction Spleen ([3]; 12.5 mg/kg bid): 99.9%; % Parasite reduction Bone marrow ([3]; 50 mg/kg qd): 99.9%; % Parasite reduction Liver ([3]; 50 mg/kg qd): 99.7%; % Parasite reduction Spleen ([3]; 50 mg/kg qd): 99.9%; IC50 [4]: 10 nM; IC50 [5]: 40 ± 10 nM; IC50 [8]: 30 ± 10 nM; IC50 [9]: 300 ± 90 nM; IC50 [10]: 50 ± 10 nM; IC50 [11]: 80 ± 20 nM; IC50 [12]: 30 ± 30 nM; IC50 [13]: 170 ± 70 nM; IC50 [14]: 560 ± 260 nM; IC50 [15]: 50 ± 30 nM
4 | COc1nc(OCC(F)(F)F)cnc1-c1c(C)[nH]c2nc(N)nc(C)c12 [Compound C3, 5-[3-methoxy-5-(2,2,2-trifluoroethoxy)pyrazin-2-yl]-4,6-dimethyl-7H-pyrrolo[2,3-d]pyrimidin-2-amine] | 1580 nM | 3480 nM | 1570 nM | 6480 nM | 120 ± 10 nM | 230 ± 100 nM | 540 ± 50 nM | 400 ± 140 nM | 260 ± 130 nM | 2380 ± 420 nM | 330 ± 80 nM | 830 ± 340 nM | 320 ± 160 nM | 690 ± 360 nM | 6640 ± 610 nM | 820 ± 330 nM | 86.7% | 98.4% | 99.0% | % Parasite reduction Bone marrow ([3]; 12.5 mg/kg qd): 89.9%; % Parasite reduction Liver ([3]; 12.5 mg/kg qd): 96.1%; % Parasite reduction Spleen ([3]; 12.5 mg/kg qd): 98.4%
5 | COc1ccccc1-c1c(C)[nH]c2nc(N)nc(C)c12 [TCMDC-143610] |  |  |  |  |  |  |  |  |  |  |  |  |  |  |  |  |  |  |  | pIC50 [16]: 6.6; pIC50 [17]: 4.6
